Laboratory results reported in ChEMBL document CHEMBL1201862, “PubChem BioAssay data set” (2004).
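In this assay, cells in 96-well plates receive the compound at five concentrations for 48 hours. Endpoints are linearly interpolated between the surrounding concentrations. GI50 = concentration required for 50% inhibition of growth.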 The source made the active and inactive calls. No stated cut-off is given here; in the data, active = GI50 up to about 1.1 µM and inactive = higher.

Key:
Test in all cases: NCI tumour cell line growth inhibition, 48 h
SK-OV-3 = test system: SK-OV-3
OVCAR-5 = test system: OVCAR-5
HT-29 = test system: HT-29
Malme-3M = test system: Malme-3M
SN12C = test system: SN12C
COLO 205 = test system: COLO 205
SW-620 = test system: SW-620
IGROV-1 = test system: IGROV-1
DU-145 = test system: DU-145
HCC 2998 = test system: HCC 2998
HOP-62 = test system: HOP-62
UACC-62 = test system: UACC-62
SK-MEL-5 = test system: SK-MEL-5
CCRF-CEM = test system: CCRF-CEM
PC-3 = test system: PC-3
A549 = test system: A549
NCI-H460 = test system: NCI-H460
NCI/ADR-RES = test system: NCI/ADR-RES
CAKI-1 = test system: CAKI-1

Measured: GI50

CC12CC1C(c1cccc([N+](=O)[O-])c1)(c1cccc([N+](=O)[O-])c1)N=N2 (stereo not given)
inactive: SK-OV-3 > 100 µM | OVCAR-5 53.3 µM | HT-29 28 µM | Malme-3M 18.2 µM | SN12C 25.6 µM | COLO 205 21.6 µM | SW-620 23.2 µM | IGROV-1 20.3 µM | DU-145 24.3 µM | HCC 2998 34.5 µM | HOP-62 > 100 µM | UACC-62 15.9 µM | SK-MEL-5 26.8 µM | CCRF-CEM 3.36 µM | PC-3 25 µM | A549 54.7 µM | NCI-H460 27.4 µM | NCI/ADR-RES 22.9 µM

CCOC(=O)c1nc2ccc(C(F)(F)F)cc2nc1NCc1cc(OC)c(OC)c(OC)c1
inactive: OVCAR-5 > 100 µM | HT-29 59.6 µM | SN12C > 100 µM | COLO 205 29.3 µM | SW-620 54.1 µM | CAKI-1 > 100 µM | IGROV-1 > 100 µM | DU-145 66.5 µM | HCC 2998 57.9 µM | HOP-62 > 100 µM | UACC-62 53.5 µM | SK-MEL-5 27.7 µM | PC-3 41.9 µM | A549 73.3 µM | NCI/ADR-RES 94.8 µM

COC(=O)c1c[nH]c(=O)[nH]c1=O [ISOOROTIC ACID METHYL ESTER]
inactive: OVCAR-5 > 100 µM | SN12C > 100 µM | COLO 205 > 100 µM | SW-620 > 100 µM | CAKI-1 > 100 µM | IGROV-1 > 100 µM | DU-145 > 100 µM | HCC 2998 > 100 µM | UACC-62 > 100 µM | SK-MEL-5 > 100 µM | CCRF-CEM > 100 µM | PC-3 > 100 µM | A549 > 100 µM | NCI-H460 > 100 µM | NCI/ADR-RES > 100 µM

COc1c(O)c(OC)c(C(=O)/C=C/c2ccccc2)c(O)c1OC [PEDICIN]
inactive: SK-OV-3 > 100 µM | OVCAR-5 58.9 µM | HT-29 32.6 µM | Malme-3M 22.8 µM | SN12C 18.3 µM | COLO 205 41.7 µM | SW-620 27.9 µM | CAKI-1 56.1 µM | IGROV-1 21.3 µM | DU-145 29.1 µM | HCC 2998 68.1 µM | SK-MEL-5 20.4 µM | CCRF-CEM 94.6 µM | PC-3 41.6 µM | NCI-H460 19.1 µM | NCI/ADR-RES 18.2 µM

CC1=NN(c2nc(N)nc(-c3ccccc3S(N)(=O)=O)n2)C(C)(C)C1
inactive: SK-OV-3 9.02 µM | OVCAR-5 27.2 µM | HT-29 12.1 µM | SW-620 25.8 µM | CAKI-1 3.37 µM | IGROV-1 22.6 µM | DU-145 7.38 µM | HCC 2998 13.8 µM | HOP-62 13 µM | SK-MEL-5 18.1 µM | CCRF-CEM 9.42 µM | PC-3 16.7 µM | NCI-H460 5.07 µM | NCI/ADR-RES 9.33 µM

CCCC(=O)NC1=C(Cl)C(=O)c2ccccc2C1=O
inactive: SK-OV-3 8.67 µM | OVCAR-5 4.59 µM | HT-29 8.49 µM | SN12C 10.8 µM | COLO 205 1.89 µM | SW-620 1.79 µM | CAKI-1 3 µM | IGROV-1 5.07 µM | DU-145 8.32 µM | HCC 2998 4.22 µM | HOP-62 9.23 µM | UACC-62 2.32 µM | SK-MEL-5 2.67 µM | CCRF-CEM 1.32 µM | PC-3 3.23 µM | A549 4.39 µM | NCI-H460 3.64 µM | NCI/ADR-RES 3.32 µM

CN1C(=O)[C@@H]2N(CSC2(C)C)C1=S
inactive: SK-OV-3 > 100 µM | OVCAR-5 > 100 µM | HT-29 > 100 µM | SN12C > 100 µM | COLO 205 > 100 µM | SW-620 > 100 µM | CAKI-1 > 100 µM | IGROV-1 > 100 µM | DU-145 > 100 µM | HCC 2998 > 100 µM | HOP-62 > 100 µM | UACC-62 > 100 µM | SK-MEL-5 4.47 µM | PC-3 > 100 µM | A549 > 100 µM | NCI-H460 > 100 µM | NCI/ADR-RES > 100 µM

CC1C2(C)OC(=N)C(C#N)(C(c3ccco3)O2)C1(C#N)C#N (stereo not given)
inactive: SK-OV-3 > 100 µM | OVCAR-5 29.7 µM | HT-29 32.8 µM | Malme-3M 31.2 µM | SN12C 16.7 µM | COLO 205 13.6 µM | SW-620 16.4 µM | CAKI-1 14.4 µM | IGROV-1 58.9 µM | DU-145 31 µM | HCC 2998 26.9 µM | UACC-62 17.7 µM | SK-MEL-5 14.9 µM | CCRF-CEM 23.6 µM | PC-3 36.6 µM | A549 > 100 µM | NCI-H460 19.3 µM | NCI/ADR-RES > 100 µM

CC1CCOc2ccc(cc2)/C=N\c2ccc(cc2)-c2ccc(cc2)/N=C\c2ccc(cc2)OCC1
inactive: SK-OV-3 > 100 µM | OVCAR-5 > 100 µM | HT-29 > 100 µM | SN12C > 100 µM | COLO 205 > 100 µM | SW-620 > 100 µM | CAKI-1 > 100 µM | IGROV-1 > 100 µM | DU-145 > 100 µM | HCC 2998 > 100 µM | SK-MEL-5 > 100 µM | CCRF-CEM > 100 µM | PC-3 > 100 µM | A549 > 100 µM | NCI-H460 > 100 µM | NCI/ADR-RES > 100 µM

S=c1scc(-c2ccc(Cl)cc2)n1OC1CCCC1
inactive: SK-OV-3 36.2 µM | OVCAR-5 52.2 µM | HT-29 20.9 µM | Malme-3M 56.2 µM | SN12C 35.8 µM | COLO 205 12 µM | SW-620 32.7 µM | CAKI-1 47.2 µM | IGROV-1 48.8 µM | DU-145 29.4 µM | HCC 2998 23.9 µM | HOP-62 36.7 µM | UACC-62 24.4 µM | SK-MEL-5 11.4 µM | PC-3 29.9 µM | A549 26.2 µM | NCI-H460 25.2 µM | NCI/ADR-RES 23.8 µM

Cc1ccc(-n2nncc2[Si](C)(C)C)s1
inactive: SK-OV-3 > 100 µM | OVCAR-5 > 100 µM | HT-29 > 100 µM | Malme-3M > 100 µM | SN12C > 100 µM | COLO 205 > 100 µM | SW-620 > 100 µM | CAKI-1 > 100 µM | DU-145 > 100 µM | HCC 2998 > 100 µM | UACC-62 > 100 µM | SK-MEL-5 > 100 µM | CCRF-CEM 22.6 µM | PC-3 > 100 µM | A549 > 100 µM | NCI-H460 > 100 µM | NCI/ADR-RES > 100 µM

Nc1ccc(C(=O)N2CCC[C@H]2CO)c(N)c1
inactive: SK-OV-3 > 100 µM | OVCAR-5 > 100 µM | HT-29 > 100 µM | SN12C > 100 µM | COLO 205 > 100 µM | SW-620 > 100 µM | CAKI-1 > 100 µM | IGROV-1 > 100 µM | DU-145 > 100 µM | HCC 2998 > 100 µM | HOP-62 > 100 µM | UACC-62 > 100 µM | SK-MEL-5 > 100 µM | CCRF-CEM > 100 µM | PC-3 > 100 µM | A549 > 100 µM | NCI-H460 > 100 µM | NCI/ADR-RES > 100 µM
